In patent US20200216416A1, “QUINOLINE COMPOUNDS AS INHIBITORS OF TAM AND MET KINASES” (Array BioPharma Inc., priority 2019, published 2020):
Read-outs that look alike come from different tables or passages of the source.

Assays:
human MET kinase D1228N = target: T1, human MET kinase D1228N (Homo sapiens, UniProt P08581, D1228N); assay: c-Met Enzyme Assay, D1228N mutant; assay type: binding; details: averaged IC50; D1228N 2 nM; 60-minute incubation at 22° C.; read-out: D1228 N IC50
T1 construct: GST-tagged recombinant human MET kinase domain; purchased Signal Chem
T1 sequence (P08581 1078-1345 D1228N): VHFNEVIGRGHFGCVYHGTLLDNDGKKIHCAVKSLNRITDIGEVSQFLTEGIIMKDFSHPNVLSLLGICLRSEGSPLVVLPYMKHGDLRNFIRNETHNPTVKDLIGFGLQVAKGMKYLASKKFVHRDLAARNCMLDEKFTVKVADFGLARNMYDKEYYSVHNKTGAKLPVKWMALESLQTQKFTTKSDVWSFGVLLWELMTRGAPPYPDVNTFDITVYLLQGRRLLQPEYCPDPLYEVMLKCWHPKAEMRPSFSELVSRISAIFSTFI
Procedure: (§1) The affinity of compound binding to wild type and mutant human MET kinases was measured using Invitrogen's LanthaScreen™ Eu Kinase Binding technology. Briefly, GST-tagged recombinant human MET kinase domain from Signal Chem (see Table 8 below for concentration in assay) was incubated with 50 nM Alexa-Fluor® Tracer 236 (Invitrogen Cat No. PR9078A) and 2 nM Europium-anti-GST (Invitrogen Cat. No. A15116) along with test compound in a buffer consisting of 25 mM HEPES, pH 7.4, 10 mM MgCl2, 0.01% Triton X-100, 1mM DTT, and 2% DMSO. Compounds were typically prepared in a three-fold serial dilution in DMSO and added to the assay to give the appropriate final concentration. After a 60-minute incubation at 22° C., the reaction was measured using a PerkinElmer EnVision multimode plate reader via TR-FRET dual wavelength detection, and the percent of control (POC) calculated using a ratiometric emission factor. […] The POC values were fit to a 4 parameter logistic curve and the IC50 value is point where the curve crosses 50 POC.

[1] = target: T2, MET (wt) GST-tagged recombinant human MET kinase domain (Homo sapiens, UniProt P08581); assay: c-Met Enzyme Assay, wild type (LanthaScreen Eu Kinase Binding); details: averaged IC50; MET (wt) 10 nM; 60-minute incubation at 22° C.; read-out: SigChem WT IC50
T2 construct: GST-tagged recombinant human MET kinase domain; purchased Signal Chem
T2 sequence (P08581 1078-1345 limits assumed): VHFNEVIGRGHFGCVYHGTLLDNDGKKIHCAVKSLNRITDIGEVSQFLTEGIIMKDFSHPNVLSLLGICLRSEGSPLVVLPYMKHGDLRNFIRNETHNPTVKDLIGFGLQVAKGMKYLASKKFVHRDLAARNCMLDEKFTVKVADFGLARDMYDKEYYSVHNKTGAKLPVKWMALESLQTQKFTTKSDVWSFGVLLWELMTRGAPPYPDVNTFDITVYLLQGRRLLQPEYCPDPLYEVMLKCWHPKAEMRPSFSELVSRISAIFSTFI
Procedure: as §1

MDR1 (P-gp) = target: T3, MDR1 (P-gp) (Homo sapiens, UniProt P08183); assay: MDR1 LLC-PK1 permeability assay; assay type: in vitro ADME; details: pig, MDR1 transfected LLC-PK1 cells; for Papp at 2 h, 1 μM: permeability coefficient (Papp)
T3 construct: expressed in transfected cells; host or cells: LLC-PK1
T3 sequence (P08183 whole entry): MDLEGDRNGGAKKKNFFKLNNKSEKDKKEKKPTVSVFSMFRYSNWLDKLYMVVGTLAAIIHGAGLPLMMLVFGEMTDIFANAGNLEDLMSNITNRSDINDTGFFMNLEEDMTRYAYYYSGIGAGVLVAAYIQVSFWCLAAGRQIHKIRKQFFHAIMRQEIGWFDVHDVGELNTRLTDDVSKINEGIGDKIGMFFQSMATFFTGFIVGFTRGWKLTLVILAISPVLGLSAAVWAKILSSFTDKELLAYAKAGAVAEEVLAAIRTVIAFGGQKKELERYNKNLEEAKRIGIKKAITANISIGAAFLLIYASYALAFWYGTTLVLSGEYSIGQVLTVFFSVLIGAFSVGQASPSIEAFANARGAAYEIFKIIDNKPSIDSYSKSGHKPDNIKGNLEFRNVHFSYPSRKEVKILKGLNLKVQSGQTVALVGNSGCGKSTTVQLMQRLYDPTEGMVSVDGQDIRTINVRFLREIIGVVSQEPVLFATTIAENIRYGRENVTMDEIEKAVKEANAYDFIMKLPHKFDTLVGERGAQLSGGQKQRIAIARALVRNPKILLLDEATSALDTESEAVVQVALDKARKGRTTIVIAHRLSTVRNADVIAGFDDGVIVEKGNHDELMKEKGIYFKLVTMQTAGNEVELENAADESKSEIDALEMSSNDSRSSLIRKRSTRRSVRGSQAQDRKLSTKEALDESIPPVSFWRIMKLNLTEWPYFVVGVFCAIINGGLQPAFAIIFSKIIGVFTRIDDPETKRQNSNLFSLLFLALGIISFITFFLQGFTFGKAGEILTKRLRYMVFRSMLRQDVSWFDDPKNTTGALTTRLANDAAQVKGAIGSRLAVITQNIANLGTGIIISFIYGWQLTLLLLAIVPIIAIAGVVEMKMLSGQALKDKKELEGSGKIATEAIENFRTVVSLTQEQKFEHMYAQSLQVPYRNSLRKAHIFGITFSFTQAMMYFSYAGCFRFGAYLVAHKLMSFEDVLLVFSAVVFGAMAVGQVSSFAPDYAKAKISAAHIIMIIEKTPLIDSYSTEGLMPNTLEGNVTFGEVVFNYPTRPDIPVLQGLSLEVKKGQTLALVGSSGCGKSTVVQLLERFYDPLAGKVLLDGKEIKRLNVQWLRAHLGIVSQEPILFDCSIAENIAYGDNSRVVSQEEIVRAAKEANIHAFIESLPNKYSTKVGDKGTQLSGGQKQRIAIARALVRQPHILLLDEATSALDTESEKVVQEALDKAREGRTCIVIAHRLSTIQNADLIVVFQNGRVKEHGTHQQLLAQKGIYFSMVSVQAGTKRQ
Procedure: MDR1 transfected LLC-PK1 cells were cultured and plated according to manufacturer's recommendations with the exception that the passage media contained only 2% fetal bovine serum to extend passage time out to seven days.
Both positive and negative controls were used to assess functionality of P-gp efflux in the assay. Stock solutions for assay controls and the test article were prepared in DMSO for final test concentrations of 10 and 1 μM, respectively. Final organic concentration in the assay was 1%. All dosing solutions contained 10 μM lucifer yellow to monitor LLC-PK1 cell monolayer integrity.
For the apical to basolateral determination (A to B), 75 μL of the test article in transport buffer were added to the apical side of the individual transwells and 250 μL of basolateral media, without compound or lucifer yellow, were added to each well. For the basolateral to apical determination (B to A), 250 μL of test article in transport buffer were added to each well and 75 μL transport buffer, without compound or lucifer yellow, were added to each transwell. All tests were performed in triplicate, and each compound was tested for both apical to basolateral and basolateral to apical transport. The plates were incubated for 2 hours on a Lab-Line Instruments Titer Orbital Shaker (VWR, West Chester, Pa.) at 50 rpm and 37° C. with 5% CO2. All culture plates were removed from the incubator and 50 μL of media were removed from the apical and basolateral portion of each well and added to 150 μL of 1 μM labetalol in 2:1 acetonitrile (acetonitrile): H2O, v/v.
The plates were read using a Molecular Devices (Sunnyvale, Calif.) Gemini Fluorometer to evaluate the lucifer yellow concentrations at excitation/emission wavelengths of 425/535 nm. These values were accepted when found to be below 2% for apical to basolateral and 5% basolateral to apical flux across the MDR1-transfected LLC-PK1-transfected cell monolayers. The plates were sealed and the contents of each well analyzed by LC-MS/MS. The compound concentrations were determined from the ratio of the peak areas of the compound to the internal standard (labetalol) in comparison to the dosing solution.
The LC-MS/MS system was comprised of an HTS-PAL autosampler (Leap Technologies, Carrboro, N.C.), an HP1200 HPLC (Agilent, Palo Alto, Calif.), and a MDS Sciex 4000 Q Trap system (Applied Biosystems, Foster City, Calif.). […] The total run time, including re-equilibration, for a single injection was 1.2 minutes. Mass spectrometric detection of the analytes was accomplished using the ion spray positive mode. Analyte responses were measured by multiple reaction monitoring (MRM) of transitions unique to each compound (the protonated precursor ion and selected product ions for each test article and m/z 329 to m/z 162 for labetalol, the internal standard).
The permeability coefficient (Papp) is calculated from the following equation: […]
where Cd, V, t and C0 are the detected concentration (μM), the volume on the dosing side (mL), the incubation time (s) and the initial dosing concentration (μM), respectively. The calculations for Papp were made for each replicate and then averaged. In this assay, a compound is defined has having high permeability if the permeability is greater than 8×10^−6 cm/sec, a compound is defined has having medium permeability if the permeability is from 2×10^−6 cm/sec to 8×10^−6 cm/sec, and a compound is defined has having low permeability if the permeability is less than 2×10^−6 cm/sec.
An efflux ratio was calculated from the mean apical to basolateral (A-B) Papp data and basolateral to apical (B-A) Papp data:
Efflux ratio=Papp(B−A)/Papp(A−B)

[2] = LLC-PK1, Papp(B−A)/Papp(A−B), test article 1 μM, 2 hours, 37° C., read-out: Efflux ratio
[3] = LLC-PK1, efflux ratio = Papp(B-A)/Papp(A-B), read-out: MDR1 Pe Ratio

COc1cc2nccc(Oc3ccc(NC(=O)c4cn(C(C)C)cc(-c5ccc(F)cc5)c4=O)nc3)c2cc1OC [Example 1]
IC50 (human MET kinase D1228N): 3.4 nM | IC50 [1]: 2.4 nM | efflux ratio at 2 h, 1 μM (MDR1 (P-gp); [2]): 3.5 | efflux ratio at 2 h, 1 μM (MDR1 (P-gp); [3]): 3.2 | Papp at 2 h, 1 μM (MDR1 (P-gp)): 10 ×10⁻⁶ cm/s

COc1cc2nccc(Oc3ccc(NC(=O)c4cn(C)cc(-c5ccc(F)cc5)c4=O)nc3)c2cc1OC [Example 2]
IC50 (human MET kinase D1228N): 29.3 nM | IC50 [1]: 6.4 nM | efflux ratio at 2 h, 1 μM (MDR1 (P-gp); [3]): 8.3 | Papp at 2 h, 1 μM (MDR1 (P-gp)): 15 ×10⁻⁶ cm/s

CCn1cc(C(=O)Nc2ccc(Oc3ccnc4cc(OC)c(OC)cc34)cn2)c(=O)c(-c2ccc(F)cc2)c1 [Example 3]
IC50 (human MET kinase D1228N): 7.4 nM | IC50 [1]: 3.2 nM | efflux ratio at 2 h, 1 μM (MDR1 (P-gp); [3]): 4.3 | Papp at 2 h, 1 μM (MDR1 (P-gp)): 10 ×10⁻⁶ cm/s

COc1cc2nccc(Oc3ccc(NC(=O)c4cn(C(C)C)cc(-c5ccc(F)cc5F)c4=O)nc3)c2cc1OC [Example 4]
IC50 (human MET kinase D1228N): 6.5 nM | IC50 [1]: 2.1 nM | efflux ratio at 2 h, 1 μM (MDR1 (P-gp); [2]): 3.5 | efflux ratio at 2 h, 1 μM (MDR1 (P-gp); [3]): 1.5 | Papp at 2 h, 1 μM (MDR1 (P-gp)): 10 ×10⁻⁶ cm/s

COc1cc2nccc(Oc3ccc(NC(=O)c4cn(C(C)C)cc(-c5ccc(Cl)cc5)c4=O)nc3)c2cc1OC [Example 5, 5-(4-chlorophenyl)-N-(5-((6,7-dimethoxyquinolin-4-yl)oxy)pyridin-2-yl)-1-isopropyl-4-oxo-1,4-dihydropyridine-3-carboxamide]
IC50 (human MET kinase D1228N): 16.1 nM | IC50 [1]: 6.4 nM | efflux ratio at 2 h, 1 μM (MDR1 (P-gp); [2]): 3.5 | efflux ratio at 2 h, 1 μM (MDR1 (P-gp); [3]): 2.6 | Papp at 2 h, 1 μM (MDR1 (P-gp)): 5 ×10⁻⁶ cm/s

COc1cc2nccc(Oc3ccc(NC(=O)c4cn(C(C)C)cc(-c5ccc(F)c(F)c5)c4=O)nc3)c2cc1OC [Example 6]
IC50 (human MET kinase D1228N): 24.2 nM | IC50 [1]: 8.8 nM | efflux ratio at 2 h, 1 μM (MDR1 (P-gp); [3]): 4.9 | Papp at 2 h, 1 μM (MDR1 (P-gp)): 7 ×10⁻⁶ cm/s

COCCn1cc(C(=O)Nc2ccc(Oc3ccnc4cc(OC)c(OC)cc34)cn2)c(=O)c(-c2ccc(F)cc2)c1 [Example 7, N-(5((6,7-dimethoxyquinolin-4-yl)oxy)pyridin-2-yl)-5-(4-fluorophenyl)-1-(2-methoxyethyl)-4-oxo-1,4-dihydropyridine-3-carboxamide]
IC50 (human MET kinase D1228N): 6.4 nM | IC50 [1]: 3.1 nM | efflux ratio at 2 h, 1 μM (MDR1 (P-gp); [3]): 8.2 | Papp at 2 h, 1 μM (MDR1 (P-gp)): 11 ×10⁻⁶ cm/s

COc1cc2nccc(Oc3ccc(NC(=O)c4cn(CC5CCOCC5)cc(-c5ccc(F)cc5)c4=O)nc3)c2cc1OC [Example 8, N-(5-((6,7-dimethoxyquinolin-4-yl)oxy)pyridin-2-yl)-5-(4-fluorophenyl)-4-oxo-1-((tetrahydro-2H-pyran-4-yl)methyl)-1,4-dihydropyridine-3-carboxamide]
IC50 (human MET kinase D1228N): 10.7 nM | IC50 [1]: 4.1 nM | efflux ratio at 2 h, 1 μM (MDR1 (P-gp); [3]): 10 | Papp at 2 h, 1 μM (MDR1 (P-gp)): 9 ×10⁻⁶ cm/s

COc1cc2nccc(Oc3ccc(NC(=O)c4cn(CC(C)(C)O)cc(-c5ccc(F)cc5)c4=O)nc3)c2cc1OC [Example 9, N-(5-((6,7-dimethoxyquinolin-4-yl)oxy)pyridin-2-yl)-5-(4-fluorophenyl)-1-(2-hydroxy-2-methylpropyl)-4-oxo-1,4-dihydropyridine-3-carboxamide]
IC50 (human MET kinase D1228N): 15.8 nM | IC50 [1]: 2.9 nM | efflux ratio at 2 h, 1 μM (MDR1 (P-gp); [3]): 26 | Papp at 2 h, 1 μM (MDR1 (P-gp)): 14 ×10⁻⁶ cm/s

CCCn1cc(C(=O)Nc2ccc(Oc3ccnc4cc(OC)c(OC)cc34)cn2)c(=O)c(-c2ccc(F)cc2)c1 [Example 10, N-(5((6,7-dimethoxyquinolin-4-yl)oxy)pyridin-2-yl)-5-(4-fluorophenyl)-4-oxo-1-propyl-1,4-dihydropyridine-3-carboxamide]
IC50 (human MET kinase D1228N): 4.1 nM | IC50 [1]: 3.6 nM | efflux ratio at 2 h, 1 μM (MDR1 (P-gp); [3]): 2.7 | Papp at 2 h, 1 μM (MDR1 (P-gp)): 7 ×10⁻⁶ cm/s

COc1cc2nccc(Oc3ccc(NC(=O)c4cn(CC(C)C)cc(-c5ccc(F)cc5)c4=O)nc3)c2cc1OC [Example 11, N-(5-((6,7-dimethoxyquinolin-4-yl)oxy)pyridin-2-yl)-5-(4-fluorophenyl)-1-isobutyl-4-oxo-1,4-dihydropyridine-3-carboxamide]
IC50 (human MET kinase D1228N): 9.4 nM | IC50 [1]: 7.8 nM | efflux ratio at 2 h, 1 μM (MDR1 (P-gp); [3]): 31

COc1cc2nccc(Oc3ccc(NC(=O)c4cn(C5CCOCC5)cc(-c5ccc(F)cc5)c4=O)nc3)c2cc1OC [Example 12, N-(5((6,7-dimethoxyquinolin-4-yl)oxy)pyridin-2-yl)-5-(4-fluorophenyl)-4-oxo-1-(tetrahydro-2H-pyran-4-yl)-1,4-dihydropyridine-3-carboxamide]
IC50 (human MET kinase D1228N): 9.7 nM | IC50 [1]: 5.4 nM | efflux ratio at 2 h, 1 μM (MDR1 (P-gp); [3]): 15 | Papp at 2 h, 1 μM (MDR1 (P-gp)): 13 ×10⁻⁶ cm/s

COc1cc2nccc(Oc3ccc(NC(=O)c4cn(CC(=O)N(C)C)cc(-c5ccc(F)cc5F)c4=O)nc3)c2cc1OC [Example 13, 5-(2,4-difluorophenyl)-N-(5((6,7-dimethoxyquinolin-4-yl)oxy)pyridin-2-yl)-1-(2-(dimethylamino)-2-oxoethyl)-4-oxo-1,4-dihydropyridine-3-carboxamide]
IC50 (human MET kinase D1228N): 11.6 nM | IC50 [1]: 3.4 nM | efflux ratio at 2 h, 1 μM (MDR1 (P-gp); [3]): 112 | Papp at 2 h, 1 μM (MDR1 (P-gp)): 6 ×10⁻⁶ cm/s

COc1cc2nccc(Oc3ccc(NC(=O)c4cn(CC(=O)N5CCCC5)cc(-c5ccc(F)cc5F)c4=O)nc3)c2cc1OC [Example 14]
IC50 (human MET kinase D1228N): 30.6 nM | IC50 [1]: 7.7 nM | efflux ratio at 2 h, 1 μM (MDR1 (P-gp); [3]): 125 | Papp at 2 h, 1 μM (MDR1 (P-gp)): 10 ×10⁻⁶ cm/s

COc1cc2nccc(Oc3ccc(NC(=O)c4cn(CC(=O)N5CCOCC5)cc(-c5ccc(F)cc5F)c4=O)nc3)c2cc1OC [Example 15, 5-(2,4-difluorophenyl)-N-(5-((6,7-dimethoxyquinolin-4-yl)oxy)pyridin-2-yl)-1-(2-morpholino-2-oxoethyl)-4-oxo-1,4-dihydropyridine-3-carboxamide]
IC50 (human MET kinase D1228N): 73.7 nM | IC50 [1]: 33.8 nM | efflux ratio at 2 h, 1 μM (MDR1 (P-gp); [3]): 135 | Papp at 2 h, 1 μM (MDR1 (P-gp)): 2 ×10⁻⁶ cm/s

COc1cc2nccc(Oc3ccc(NC(=O)c4cn(C(C)C)c(C(C)C)c(-c5ccc(F)cc5)c4=O)nc3)c2cc1OC [Example 38, N-(5-((6,7-dimethoxyquinolin-4yl)oxy)pyridin-2-yl)-5-(4-fluorophenyl)-1,6-diisopropyl-4-oxo-1,4-dihydropyridine-3-carboxamide]
Papp at 2 h, 1 μM (MDR1 (P-gp)): 25 ×10⁻⁶ cm/s

COc1cc2nc(C)cc(Oc3ccc(NC(=O)c4cn(C(C)C)cc(-c5ccc(F)cc5)c4=O)nc3)c2cc1OC [Example 53, N-(5-((6,7-dimethoxy-2-methylquinolin-4-yl)oxy)pyridin-2-yl)-5-(4-fluorophenyl)-1-isopropyl-4-oxo-1,4-dihydropyridine-3-carboxamide]
IC50 [1]: 3070 nM | efflux ratio at 2 h, 1 μM (MDR1 (P-gp); [3]): 3.4 | Papp at 2 h, 1 μM (MDR1 (P-gp)): 5 ×10⁻⁶ cm/s
